From ChEMBL document CHEMBL1201862, “PubChem BioAssay data set” (2004)
Active and inactive are the calls of the source.

What was measured:
Saccharomyces cerevisiae = test: NALP1 inhibitor project selectivity study, Caspase-1/ASC signal blockade IC50 in S. cerevisiae (AID 488863); assay type: functional, organism-based
ORF 73 = ORF 73 (Human herpesvirus 8, UniProt O40947); test: inhibitors of C-LANA binding to LBS DNA, dose response, biochemical, fluorescence polarization, cherry-picked samples (AID 504725); design: species or system Human gammaherpesvirus 8;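 further: fluorescence polarization of a labeled DNA duplex reporting LANA DNA binding; potency is for inhibitors that block LANA binding to the DNA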
[1] = target: NACHT, LRR and PYD domains-containing protein 1 (Homo sapiens, UniProt Q9C000); test: NALP1 inhibitors in yeast, dose response, luminescent (AID 488860); assay type: functional
Troponin, cardiac muscle = Troponin, cardiac muscle (Homo sapiens, UniProt P19429+P45379+P63316); test: Fluorescence-based biochemical high throughput dose response assay for activators of the calcium sensitivity of cardiac Regulated Thin Filaments (RTF). [Related pubchem assays (depositor defined):AID493008, AID493018, AID504382, AID504383]; assay type: protein-complex assay
[2] = target: T1, Heat shock factor protein 1 (Mus musculus, UniProt P38532); test: HSF1 potentiators in luciferase reporter cells, confirmation, cell-based, NIH3T3, luminescence, dose retest (AID 435004); assay type: functional;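 further: stress induced by proteasome inhibitor MG132 added 30 min after compound; luciferase reporter driven by HSF1 response element in NIH3T3 cells; actives raise luminescence as potentiators of the MG132 stress response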
T1 sequence (P38532 whole entry): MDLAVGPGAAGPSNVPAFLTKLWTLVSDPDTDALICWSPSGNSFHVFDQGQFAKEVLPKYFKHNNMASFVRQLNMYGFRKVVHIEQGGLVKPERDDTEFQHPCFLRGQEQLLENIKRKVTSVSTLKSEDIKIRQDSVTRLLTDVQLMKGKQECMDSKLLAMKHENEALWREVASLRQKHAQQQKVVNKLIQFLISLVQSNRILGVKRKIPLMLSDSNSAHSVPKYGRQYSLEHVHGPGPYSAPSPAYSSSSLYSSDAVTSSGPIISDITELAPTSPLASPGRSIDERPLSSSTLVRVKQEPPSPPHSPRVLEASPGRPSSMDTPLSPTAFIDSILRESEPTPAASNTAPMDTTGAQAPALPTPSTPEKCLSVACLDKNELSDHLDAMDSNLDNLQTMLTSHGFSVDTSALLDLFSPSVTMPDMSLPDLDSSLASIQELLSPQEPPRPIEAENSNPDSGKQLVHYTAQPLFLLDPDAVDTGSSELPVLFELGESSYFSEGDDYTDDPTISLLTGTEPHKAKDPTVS

[3] = target: T2, Replicative DNA helicase DnaB (Mycobacterium tuberculosis, UniProt P9WMR3); test: DnaB intein splicing inhibitors, dose response, biochemical, cell-free fluorescence (AID 449749); assay type: functional
T2 sequence (P9WMR3 whole entry): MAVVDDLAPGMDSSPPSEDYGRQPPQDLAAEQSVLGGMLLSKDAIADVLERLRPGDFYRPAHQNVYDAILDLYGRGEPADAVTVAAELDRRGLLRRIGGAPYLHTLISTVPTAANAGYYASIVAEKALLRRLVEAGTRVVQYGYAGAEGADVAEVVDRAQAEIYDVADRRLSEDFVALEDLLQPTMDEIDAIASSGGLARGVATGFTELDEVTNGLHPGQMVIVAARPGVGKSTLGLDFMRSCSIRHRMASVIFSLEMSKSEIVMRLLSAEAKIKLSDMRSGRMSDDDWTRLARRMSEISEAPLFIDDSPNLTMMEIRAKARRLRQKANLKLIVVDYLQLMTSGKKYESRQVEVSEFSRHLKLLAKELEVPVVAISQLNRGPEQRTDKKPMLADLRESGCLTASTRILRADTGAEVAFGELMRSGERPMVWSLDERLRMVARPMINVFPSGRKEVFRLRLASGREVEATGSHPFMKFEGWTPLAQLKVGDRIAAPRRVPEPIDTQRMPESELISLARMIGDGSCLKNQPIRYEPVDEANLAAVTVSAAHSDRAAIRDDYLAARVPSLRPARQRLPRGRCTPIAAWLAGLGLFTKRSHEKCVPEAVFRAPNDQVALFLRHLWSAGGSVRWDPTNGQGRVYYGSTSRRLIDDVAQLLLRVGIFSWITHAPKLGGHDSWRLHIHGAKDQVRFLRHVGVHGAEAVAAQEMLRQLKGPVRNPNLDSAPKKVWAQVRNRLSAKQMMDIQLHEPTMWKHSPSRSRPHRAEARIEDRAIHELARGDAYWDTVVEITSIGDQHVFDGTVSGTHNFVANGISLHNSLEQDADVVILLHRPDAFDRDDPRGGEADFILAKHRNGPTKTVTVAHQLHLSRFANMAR

Keap1/Nrf2 = Keap1/Nrf2 (Homo sapiens, UniProt Q14145); test: Keap1-Nrf2 protein-protein interaction inhibitors, dose response, biochemical, fluorescence polarization, cherry-picked samples (AID 588683)
[4] = target: Mitochondrial peptide methionine sulfoxide reductase (Bos taurus, UniProt P54149); test: Absorbance-based biochemical high throughput dose response assay for activators of Methionine sulfoxide reductase A (MsrA).; assay type: functional
[5] = target: T3, Sentrin-specific protease 8 (Homo sapiens, UniProt Q96LD8); assay type: functional
T3 sequence (Q96LD8 whole entry): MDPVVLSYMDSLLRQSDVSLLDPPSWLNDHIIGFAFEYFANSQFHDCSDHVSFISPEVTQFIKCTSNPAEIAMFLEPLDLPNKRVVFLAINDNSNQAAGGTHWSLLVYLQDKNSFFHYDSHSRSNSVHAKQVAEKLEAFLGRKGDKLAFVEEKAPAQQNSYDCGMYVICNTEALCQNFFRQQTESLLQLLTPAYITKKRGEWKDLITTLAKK

[6] = target: T3, Sentrin-specific protease 8; assay type: functional; remark: listed apart in the source
Caspase-6 = target: T4, Caspase-6 (Homo sapiens, UniProt P55212); test: human caspase-6 inhibitors, dose response, biochemical, VEID-R110 fluorescence, cherry-pick (AID 720632)
T4 sequence (P55212 whole entry): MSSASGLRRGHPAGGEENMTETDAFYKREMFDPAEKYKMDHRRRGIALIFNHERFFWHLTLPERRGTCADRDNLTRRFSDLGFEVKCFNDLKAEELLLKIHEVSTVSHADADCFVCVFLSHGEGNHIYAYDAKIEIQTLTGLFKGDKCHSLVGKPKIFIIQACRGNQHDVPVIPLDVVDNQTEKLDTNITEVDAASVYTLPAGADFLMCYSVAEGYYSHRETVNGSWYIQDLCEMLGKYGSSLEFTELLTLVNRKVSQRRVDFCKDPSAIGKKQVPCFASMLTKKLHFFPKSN

[7] = target: Serine/threonine-protein kinase 17A (Homo sapiens, UniProt Q9UEE5); assay type: functional
[8] = target: Serine/threonine-protein kinase N2 (Homo sapiens, UniProt Q16513); assay type: functional
[9] = target: Proto-oncogene tyrosine-protein kinase ROS (Homo sapiens, UniProt P08922); assay type: functional;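 further: ROS1 tested as one member of a kinome-wide kinase panel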
[10] = target: Mitogen-activated protein kinase 10 (Homo sapiens, UniProt P53779); test: Navigating the Kinome. Panel member name: MAPK10; assay type: functional
[11] = target: Mitogen-activated protein kinase kinase kinase 10 (Homo sapiens, UniProt Q02779); test: Navigating the Kinome. Panel member name: MAP3K10; assay type: functional

c1ccc2nc3cc4[nH]cnc4cc3nc2c1
inactive: IC50 [1] > 100 µM | EC50 [4] 53 µM
active: IC50 (Saccharomyces cerevisiae) 32.7 µM | AC50 (ORF 73) 7.45 µM | EC50 (Troponin, cardiac muscle) 5.37 µM | EC50 [2] 15.5 µM | AC50 [3] 19.5 µM | AC50 (Keap1/Nrf2) 10.4 µM | IC50 [5] 12.5 µM | IC50 [6] 10.8 µM | AC50 (Caspase-6) 33 µM

CCCCC(=O)Nc1cc(-c2c[nH]c3ncccc23)cc(Cl)n1
inactive: Ki [7] > 3.16 µM | Ki [8] > 5.01 µM

Oc1ccc(-c2nc(-c3ccncc3)c(-c3ccc(F)cc3)[nH]2)cc1 [SB-202190]
active: Ki [9] 2.51 µM | Ki [10] 0.0631 µM
inactive: Ki [11] > 3.16 µM
